Experimental data as given in ChEMBL document CHEMBL4396891, “Recent update on anti-dengue drug discovery” (Eur J Med Chem, 2019).
Converted amounts (≈) assume the structure as drawn.

How the values were obtained:
Nonstructural protein 5 [1] = target: T1, Nonstructural protein 5 (Dengue virus, UniProt V5TFZ2); experiment: Inhibition of His-tagged DENV2 NS5 RNA dependent RNA polymerase; set-up: species or system dengue virus type 2
dengue virus type 2 [2] = experiment: Antiviral activity against DENV2; assay type: functional, organism-based
Nonstructural protein 5 [3] = target: T1, Nonstructural protein 5; experiment: Inhibition of His-tagged DENV2 NS5 RNA dependent RNA polymerase expressed in baculovirus infected sf9 cells; set-up: species or system dengue virus type 2
[4] = Inhibition of DENV3 N7-methyltransferase using G*pppA-RNA as substrate; set-up: species or system dengue virus type 3
Nonstructural protein 5 [5] = target: T1, Nonstructural protein 5; experiment: Inhibition of DENV3 2'-O-methyltransferase using m7G*pppA-RNA as substrate; set-up: species or system dengue virus type 3
Nonstructural protein 5 [6] = target: T1, Nonstructural protein 5; experiment: Inhibition of DENV2 2'-O-methyltransferase using m7G*pppA-RNA as substrate; set-up: species or system dengue virus type 2
[7] = Inhibition of DENV2 N7-methyltransferase using G*pppA-RNA as substrate; set-up: species or system dengue virus type 2
dengue virus type 2 [8] = experiment: Antiviral activity against DENV2 infected in HEK293 cells assessed as reduction in plaque formation; assay type: functional, organism-based
Genome polyprotein [9] = target: T2, Genome polyprotein (dengue virus type 2, UniProt P29990); experiment: Inhibition of DENV2 NS2B-NS3 serine protease expressed using Benzoyl-Nle-Lys-Arg-Arg-AMC as substrate measured preincubated for 3 mins followed by substrate addition by fluorescence assay
dengue virus type 2 [10] = experiment: Antiviral activity against DENV2 infected in BHK-21 cells assessed as viral replication; assay type: functional, organism-based
dengue virus type 2 [11] = experiment: Antiviral activity against DENV2 New Guinea C infected in human Huh7 cells assessed as reduction in viral titer after 3 to 4 days by MTT assay; assay type: functional, organism-based; settings: Huh-7
Dengue virus [12] = experiment: Antiviral activity against dengue virus; assay type: functional, organism-based
dengue virus type 2 [13] = experiment: Antiviral activity against DENV2 infected in BHK-21 cells assessed as viral replication after 24 to 48 hrs by luciferase reporter gene assay; assay type: functional, organism-based
dengue virus type 2 [14] = experiment: Antiviral activity against DENV2 infected in human Huh7 cells by qRT-PCR analysis; assay type: functional, organism-based; settings: Huh-7
Genome polyprotein [15] = target: T2, Genome polyprotein; experiment: Inhibition of His-tagged DENV2 NS2B-NS3 serine protease expressed in Escherichia coli BL21 using Boc-Gly-Arg-Arg-7-amino-4-methylcoumarin as substrate measured after 10 mins by fluorometric assay
dengue virus type 1 [16] = experiment: Antiviral activity against DENV1 infected in African green monkey Vero cells assessed as reduction in viral replication after 4 days by qRT-PCR analysis; assay type: functional, organism-based; settings: 96 h
dengue virus type 2 [17] = experiment: Antiviral activity against DENV2 infected in human Huh-7 cells; assay type: functional, organism-based
Dengue virus [18] = experiment: Antiviral activity against dengue virus infected in HeLa cells assessed as reduction in viral propagation after 72 hrs by RT-qPCR analysis; assay type: functional, organism-based
Nonstructural protein 5 [19] = target: T1, Nonstructural protein 5; experiment: Inhibition of dengue virus NS5 RNA dependent RNA polymerase
dengue virus type 1 [20] = experiment: Antiviral activity against DENV1 Djibouti infected in African green monkey Vero E6 cells after 3 to 4 days by RT-PCR analysis; assay type: functional, organism-based; settings: Vero C1008
dengue virus type 3 = experiment: Antiviral activity against DENV3 Bolivia infected in African green monkey Vero E6 cells after 3 to 4 days by RT-PCR analysis; assay type: functional, organism-based; settings: Vero C1008
Nonstructural protein 5 [21] = target: T1, Nonstructural protein 5; experiment: Inhibition of N-terminal His6-tagged DENV3 NS5 RNA dependent RNA polymerase (272 to 900 residues) after 1 hr by fluorescence assay; set-up: species or system dengue virus type 3
dengue virus type 2 [22] = experiment: Antiviral activity against DENV2 Martinique infected in African green monkey Vero E6 cells after 3 to 4 days by RT-PCR analysis; assay type: functional, organism-based; settings: Vero C1008
dengue virus type 4 = experiment: Antiviral activity against DENV4 Dakar infected in African green monkey Vero E6 cells after 3 to 4 days by RT-PCR analysis; assay type: functional, organism-based; settings: Vero C1008

`CCOC(=O)c1cnn(-c2ccccc2)c1N(S(=O)(=O)c1ccc([N+](=O)[O-])cc1)S(=O)(=O)c1ccc([N+](=O)[O-])cc1` showed an EC50 (Nonstructural protein 5 [1]) of 4.9 µM, an EC50 (dengue virus type 2 [2]) of 5.7 µM and an EC50 (Nonstructural protein 5 [3]) of 13 nM.
Work on `CC1=C(Nc2c(C)cc(O)cc2O)C(=O)C=c2oc3c(c21)C(C)=C(Nc1c(C)cc(O)cc1O)C(=O)C=3` yielded an IC50 [4] of 28 to 32 µM, an IC50 (Nonstructural protein 5 [5]) of 2.3 to 21 µM and an IC50 (Nonstructural protein 5 [6]) of 2.3 to 21 µM. It also gave an IC50 [7] of 28 to 32 µM.
`Cc1cnc(NC(=O)c2cc(S(=O)(=O)N(C)C)ccc2N2CCCC2)s1` showed an EC50 (dengue virus type 2 [8]) of 850 nM.
With `Cc1ccc(C(=O)c2cc(O)c(O)c([N+](=O)[O-])c2)cc1` [TOLCAPONE] the IC50 (Genome polyprotein [9]) was 640 to 1150 nM and the EC50 (dengue virus type 2 [10]) was 2290 nM.
Work on `CC(C)=CCC/C(C)=C/C=O` [CITRAL] yielded an IC50 (dengue virus type 2 [2]) of 31 µM.
`COc1cc(/C(C#N)=C/c2cc3ccccc3[nH]2)cc(OC)c1OC` showed an EC50 (dengue virus type 2 [11]) of 8.12 µM.
`CC(C)C[C@@H]1NC(=O)[C@@H]2C[C@@H](O)CN2C1=O` gave an EC50 (Dengue virus [12]) of 11.2 to 21.2 µM.
With `CC[C@H]1C[C@H]2C[N@]3CCc4c([nH]c5ccc(OC)cc45)[C@](C(=O)OC)(C2)[C@H]13` the EC50 (dengue virus type 2 [2]) was 2.6 to 10.2 µM.
Compound `CN1CCN(CCCN2c3ccccc3Sc3ccc(Cl)cc32)CC1` [PROCHLORPERAZINE] has an EC50 (dengue virus type 2 [2]) of 0.088 µM.
With `CCN(CC)Cc1cc(Nc2ccnc3cc(Cl)ccc23)ccc1O` [AMODIAQUINE] the IC50 (dengue virus type 2 [13]) was 1080 nM and the IC90 (dengue virus type 2 [13]) was 2690 nM.
Compound `CNCCC(Oc1ccc(C(F)(F)F)cc1)c1ccccc1` (stereo not drawn) [FLUOXETINE] has an IC50 (dengue virus type 2 [14]) of 380 nM.
`O=C1C=C2CCN3Cc4cc5c(cc4[C@H]([C@@H]1O)[C@@H]23)OCO5` gave an EC50 (Dengue virus [12]) of 0.4 to 1.8 µM.
For `O=C1N[C@@H](Cc2ccccc2)C(=O)N2C[C@H](O)C[C@@H]12`, the EC50 (Dengue virus [12]) was 11.2 to 21.2 µM.
`O=C(Nc1cccs1)c1ccccc1Sc1ccc([N+](=O)[O-])cc1` showed an IC50 (Genome polyprotein [15]) of 98 µM and an EC50 (dengue virus type 1 [16]) of 3.5 µM.
`CC(=O)O[C@@H]1C(=O)C=C2CCN3Cc4cc5c(cc4[C@H]1[C@@H]23)OCO5` showed an EC50 (Dengue virus [12]) of 0.4 to 1.8 µM.
Work on `O=c1c2cc(O)c(O)cc2oc2cc(O)c([C@@H]3O[C@H](CO)[C@@H](O)[C@H](O)[C@H]3O/C=C/c3ccc(O)c(O)c3)c(O)c12` yielded an EC50 (dengue virus type 2 [17]) of 4.1 µg/mL (≈ 7.37 µM).
Compound `CCCc1cc(=O)oc2c(C(=O)CC(C)C)c(O)c(CC=C(C)C)c(O)c12` has an EC50 (dengue virus type 2 [2]) of 2.6 to 10.2 µM.
Compound `Cc1c(O)cccc1C(=O)N[C@@H](CSc1ccccc1)[C@H](O)CN1C[C@H]2CCCC[C@H]2C[C@H]1C(=O)NC(C)(C)C` [NELFINAVIR] has an IC50 (dengue virus type 2 [2]) of 3.5 µM.
`COc1cc(/C(C#N)=C/c2cc3ccccc3s2)cc(OC)c1OC` showed an EC50 (dengue virus type 2 [11]) of 7.22 µM.
`CC(C)C[C@@H]1NC(=O)[C@@H]2CCCN2C1=O` gave an EC50 (Dengue virus [12]) of 11.2 to 21.2 µM.
Compound `CCN(CC)Cc1ccc(C(=O)N(CCc2ccccc2OC)[C@@H]2CCNC2)cc1` has an IC50 (Dengue virus [18]) of 36.5 µM and an IC90 (Dengue virus [18]) of 35.5 µM.
For `C=C(C)[C@@H]1CC[C@]2(C(=O)O)CC[C@]3(C)[C@H](CC[C@@H]4[C@@]5(C)CC[C@H](O)C(C)(C)[C@@H]5CC[C@]43C)[C@@H]12` [BETULINIC ACID], the IC50 (Nonstructural protein 5 [19]) was 1700 to 2100 nM.
`O=C(N[C@@H](Cc1ccc(O)cc1)C(=O)O)c1cc(-c2ccccc2)c(=O)n2c1sc1ccc(OC3CCCCC3)cc12` gave an IC50 (dengue virus type 1 [20]) of 6.8 to 15 µM, an IC50 (dengue virus type 3) of 6.8 to 15 µM and an IC50 (Nonstructural protein 5 [21]) of 1500 nM. It also gave an IC50 (dengue virus type 2 [22]) of 6.8 to 15 µM and an IC50 (dengue virus type 4) of 6.8 to 15 µM.
Compound `O[C@H]1[C@H]2c3cc4c(cc3CN3CCC(=C[C@@H]1O)[C@H]23)OCO4` [LYCORINE] has an EC50 (Dengue virus [12]) of 0.4 to 1.8 µM.
Work on `OCc1cc(C(O)CNCCCCCCOCCCCc2ccccc2)ccc1O` (stereo not drawn) [SALMETEROL] yielded an IC50 (dengue virus type 2 [14]) of 670 nM.
